Consider six molecules from ChEMBL document CHEMBL1145498, “A systematic interaction map of validated kinase inhibitors with Ser/Thr kinases” (Proc Natl Acad Sci U S A, 2007).

The target in test [1] is Calcium/calmodulin-dependent protein kinase type 1D (Homo sapiens) (UniProt Q8IU85).
For test [2], the target named is Calcium/calmodulin-dependent protein kinase type 1G (Homo sapiens) (UniProt Q96NX5).
In test [3] the target is Cyclin-dependent kinase 6 (Homo sapiens) (UniProt Q00534).
Test [4] has as its target Dual specificity protein kinase CLK1 (Homo sapiens) (UniProt P49759).
Test [5] has as its target Death-associated protein kinase 3 (Homo sapiens) (UniProt O43293).
In test [6] the target is Dual specificity mitogen-activated protein kinase kinase 2 (Homo sapiens, UniProt P36507).
Test [7] has as its target Mitogen-activated protein kinase 3 (Homo sapiens, UniProt P27361).
The target in test [8] is T1, Serine/threonine-protein kinase Nek2 (Homo sapiens) (UniProt P51955).
T1 sequence (whole entry): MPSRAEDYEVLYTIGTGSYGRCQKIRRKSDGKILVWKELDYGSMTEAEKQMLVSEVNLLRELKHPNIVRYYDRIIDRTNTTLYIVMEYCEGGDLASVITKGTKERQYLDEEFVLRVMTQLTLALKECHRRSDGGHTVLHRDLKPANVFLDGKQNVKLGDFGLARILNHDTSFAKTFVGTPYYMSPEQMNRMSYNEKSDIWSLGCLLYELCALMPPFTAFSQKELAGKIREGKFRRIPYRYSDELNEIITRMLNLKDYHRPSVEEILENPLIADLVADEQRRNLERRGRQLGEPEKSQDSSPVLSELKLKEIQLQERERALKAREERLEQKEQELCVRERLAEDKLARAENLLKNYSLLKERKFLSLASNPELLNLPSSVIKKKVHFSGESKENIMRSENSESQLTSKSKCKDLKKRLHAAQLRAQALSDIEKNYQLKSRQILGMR

Test [9] addresses Serine/threonine-protein kinase Nek6 (Homo sapiens) (UniProt Q9HC98).
Test [10] addresses Serine/threonine-protein kinase OSR1 (Homo sapiens) (UniProt O95747).
In test [11] the target is T2, 3-phosphoinositide-dependent protein kinase 1 (Homo sapiens) (UniProt O15530).
T2 sequence (whole entry): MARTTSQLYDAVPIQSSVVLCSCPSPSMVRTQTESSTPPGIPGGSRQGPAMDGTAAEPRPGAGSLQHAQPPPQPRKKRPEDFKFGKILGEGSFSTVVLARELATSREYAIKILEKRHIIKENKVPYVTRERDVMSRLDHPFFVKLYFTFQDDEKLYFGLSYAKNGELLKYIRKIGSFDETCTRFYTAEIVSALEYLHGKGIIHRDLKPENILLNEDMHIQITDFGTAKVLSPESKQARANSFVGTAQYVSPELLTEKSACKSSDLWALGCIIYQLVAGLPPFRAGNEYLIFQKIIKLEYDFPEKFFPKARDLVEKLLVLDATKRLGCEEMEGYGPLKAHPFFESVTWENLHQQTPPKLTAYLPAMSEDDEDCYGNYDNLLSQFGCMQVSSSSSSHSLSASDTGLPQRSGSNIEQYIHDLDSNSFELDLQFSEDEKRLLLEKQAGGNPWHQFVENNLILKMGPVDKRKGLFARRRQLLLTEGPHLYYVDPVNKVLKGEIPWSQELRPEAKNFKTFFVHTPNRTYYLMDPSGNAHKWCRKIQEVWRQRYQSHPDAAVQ

Test [12] concerns the target cAMP-dependent protein kinase catalytic subunit alpha (Homo sapiens) (UniProt P17612).
The target in test [13] is Serine/threonine-protein kinase RIO2 (Homo sapiens) (UniProt Q9BVS4).
Test [14] addresses Ribosomal protein S6 kinase alpha-3 (Homo sapiens) (UniProt P51812).
The target of test [15] is STE20-like serine/threonine-protein kinase (Homo sapiens) (UniProt Q9H2G2).
Test [16] concerns the target Serine/threonine-protein kinase 16 (Homo sapiens) (UniProt O75716).
Test [17] concerns the target Serine/threonine-protein kinase 38 (Homo sapiens) (UniProt Q15208).
In test [18] the target is T3, Serine/threonine-protein kinase 4 (Homo sapiens) (UniProt Q13043).
T3 sequence (whole entry): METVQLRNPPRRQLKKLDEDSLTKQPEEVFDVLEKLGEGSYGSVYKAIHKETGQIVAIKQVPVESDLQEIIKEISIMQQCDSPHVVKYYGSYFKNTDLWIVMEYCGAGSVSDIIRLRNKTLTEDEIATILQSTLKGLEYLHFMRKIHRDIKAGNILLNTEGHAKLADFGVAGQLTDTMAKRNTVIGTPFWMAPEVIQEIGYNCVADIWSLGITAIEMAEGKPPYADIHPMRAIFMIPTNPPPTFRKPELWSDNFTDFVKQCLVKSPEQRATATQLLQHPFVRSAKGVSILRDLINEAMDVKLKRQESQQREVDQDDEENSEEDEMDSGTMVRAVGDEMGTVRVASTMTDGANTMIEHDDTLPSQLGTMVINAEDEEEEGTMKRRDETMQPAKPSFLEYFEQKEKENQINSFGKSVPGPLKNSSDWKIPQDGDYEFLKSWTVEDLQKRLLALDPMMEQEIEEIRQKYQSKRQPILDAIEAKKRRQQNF

In test [19] the target is T4, Lymphokine-activated killer T-cell-originated protein kinase (Homo sapiens) (UniProt Q96KB5).
T4 sequence (whole entry): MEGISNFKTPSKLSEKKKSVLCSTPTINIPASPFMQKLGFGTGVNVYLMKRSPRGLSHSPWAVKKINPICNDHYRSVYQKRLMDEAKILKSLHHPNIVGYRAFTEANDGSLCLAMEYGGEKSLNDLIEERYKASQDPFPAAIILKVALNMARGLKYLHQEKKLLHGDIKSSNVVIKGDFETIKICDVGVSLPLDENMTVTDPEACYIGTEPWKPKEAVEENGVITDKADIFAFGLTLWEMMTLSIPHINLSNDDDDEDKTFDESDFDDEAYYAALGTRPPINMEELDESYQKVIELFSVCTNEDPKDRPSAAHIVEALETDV

Test [20] has as its target Serine/threonine-protein kinase VRK2 (Homo sapiens) (UniProt Q86Y07).
In test [21] the target is Serine/threonine-protein kinase 25 (Homo sapiens) (UniProt O00506).
Chain of Serine/threonine-protein kinase 25 (Homo sapiens) (O00506 whole entry, looked up): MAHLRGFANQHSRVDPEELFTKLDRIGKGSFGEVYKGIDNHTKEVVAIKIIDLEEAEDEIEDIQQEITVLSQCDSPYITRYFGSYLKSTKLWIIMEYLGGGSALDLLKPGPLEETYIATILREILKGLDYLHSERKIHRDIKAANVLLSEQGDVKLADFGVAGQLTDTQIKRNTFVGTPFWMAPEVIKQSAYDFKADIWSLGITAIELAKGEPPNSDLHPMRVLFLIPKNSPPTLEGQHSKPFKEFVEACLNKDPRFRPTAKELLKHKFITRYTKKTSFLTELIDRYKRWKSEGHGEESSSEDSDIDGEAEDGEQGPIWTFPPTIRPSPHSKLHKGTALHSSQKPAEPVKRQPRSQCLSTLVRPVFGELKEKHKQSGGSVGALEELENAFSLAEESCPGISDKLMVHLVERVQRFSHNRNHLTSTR

Chain of Death-associated protein kinase 3 (Homo sapiens) (O43293 whole entry, looked up): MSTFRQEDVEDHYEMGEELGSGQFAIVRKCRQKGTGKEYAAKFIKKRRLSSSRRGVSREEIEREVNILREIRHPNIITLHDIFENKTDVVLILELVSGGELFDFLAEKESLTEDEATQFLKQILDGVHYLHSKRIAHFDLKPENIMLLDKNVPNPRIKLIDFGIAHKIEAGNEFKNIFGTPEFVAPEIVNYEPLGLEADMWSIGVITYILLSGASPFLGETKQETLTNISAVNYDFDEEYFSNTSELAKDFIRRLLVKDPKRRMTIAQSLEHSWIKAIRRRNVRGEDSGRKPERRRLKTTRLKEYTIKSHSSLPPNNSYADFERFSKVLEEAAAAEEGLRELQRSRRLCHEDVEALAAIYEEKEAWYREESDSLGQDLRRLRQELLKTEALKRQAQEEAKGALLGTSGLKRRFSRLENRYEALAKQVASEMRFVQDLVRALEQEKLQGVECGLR
Chain of Serine/threonine-protein kinase Nek6 (Homo sapiens) (Q9HC98 whole entry): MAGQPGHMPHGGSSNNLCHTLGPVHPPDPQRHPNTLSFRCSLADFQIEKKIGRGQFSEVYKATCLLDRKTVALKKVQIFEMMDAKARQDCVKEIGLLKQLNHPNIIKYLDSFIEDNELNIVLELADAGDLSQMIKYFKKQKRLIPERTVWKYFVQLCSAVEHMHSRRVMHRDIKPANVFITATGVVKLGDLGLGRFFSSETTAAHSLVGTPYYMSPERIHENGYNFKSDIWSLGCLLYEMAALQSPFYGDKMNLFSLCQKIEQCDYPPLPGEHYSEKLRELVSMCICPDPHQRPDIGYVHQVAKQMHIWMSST
Chain of Dual specificity protein kinase CLK1 (Homo sapiens) (P49759 whole entry, looked up): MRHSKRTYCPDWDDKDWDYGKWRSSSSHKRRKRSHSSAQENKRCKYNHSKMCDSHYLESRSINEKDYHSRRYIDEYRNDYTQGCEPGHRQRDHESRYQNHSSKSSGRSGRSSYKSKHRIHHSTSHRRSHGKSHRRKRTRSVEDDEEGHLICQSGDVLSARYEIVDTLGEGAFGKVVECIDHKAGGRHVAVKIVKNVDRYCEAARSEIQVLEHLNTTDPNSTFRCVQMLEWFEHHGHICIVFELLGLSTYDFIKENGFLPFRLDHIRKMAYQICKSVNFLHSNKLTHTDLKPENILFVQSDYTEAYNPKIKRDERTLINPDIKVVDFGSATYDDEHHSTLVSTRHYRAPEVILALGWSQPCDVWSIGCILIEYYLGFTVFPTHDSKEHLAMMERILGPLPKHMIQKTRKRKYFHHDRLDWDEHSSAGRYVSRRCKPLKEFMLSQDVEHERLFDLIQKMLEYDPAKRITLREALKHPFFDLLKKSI
Chain of Serine/threonine-protein kinase OSR1 (Homo sapiens) (O95747 2-527 limits assumed): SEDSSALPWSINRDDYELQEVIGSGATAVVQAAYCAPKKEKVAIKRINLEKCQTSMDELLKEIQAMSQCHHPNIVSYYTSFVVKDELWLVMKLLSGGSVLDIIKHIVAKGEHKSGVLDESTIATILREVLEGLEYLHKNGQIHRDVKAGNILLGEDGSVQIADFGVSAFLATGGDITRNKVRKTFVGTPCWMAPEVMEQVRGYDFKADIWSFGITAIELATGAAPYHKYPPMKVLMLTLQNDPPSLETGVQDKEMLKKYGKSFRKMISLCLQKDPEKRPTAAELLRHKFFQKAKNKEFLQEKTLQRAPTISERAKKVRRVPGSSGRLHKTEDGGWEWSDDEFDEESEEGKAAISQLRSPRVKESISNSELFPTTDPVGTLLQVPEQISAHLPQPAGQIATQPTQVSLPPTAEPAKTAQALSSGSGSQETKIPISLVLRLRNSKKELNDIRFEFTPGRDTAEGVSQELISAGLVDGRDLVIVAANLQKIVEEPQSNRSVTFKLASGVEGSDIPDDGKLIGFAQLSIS
Chain of Serine/threonine-protein kinase VRK2 (Homo sapiens) (Q86Y07 whole entry): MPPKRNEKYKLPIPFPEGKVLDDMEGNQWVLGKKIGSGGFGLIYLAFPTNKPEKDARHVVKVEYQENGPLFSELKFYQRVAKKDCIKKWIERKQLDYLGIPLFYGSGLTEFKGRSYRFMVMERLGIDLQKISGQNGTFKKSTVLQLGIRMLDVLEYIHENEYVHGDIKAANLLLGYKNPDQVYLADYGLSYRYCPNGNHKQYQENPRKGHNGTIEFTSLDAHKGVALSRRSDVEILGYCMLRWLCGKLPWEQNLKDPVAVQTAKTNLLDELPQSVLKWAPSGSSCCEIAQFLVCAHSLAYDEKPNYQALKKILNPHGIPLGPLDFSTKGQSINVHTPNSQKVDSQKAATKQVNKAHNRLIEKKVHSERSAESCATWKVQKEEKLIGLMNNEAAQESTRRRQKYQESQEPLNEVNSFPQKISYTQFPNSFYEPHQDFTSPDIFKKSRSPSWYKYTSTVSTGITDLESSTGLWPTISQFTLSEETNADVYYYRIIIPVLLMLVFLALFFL
Chain of Calcium/calmodulin-dependent protein kinase type 1D (Homo sapiens) (Q8IU85 whole entry, looked up): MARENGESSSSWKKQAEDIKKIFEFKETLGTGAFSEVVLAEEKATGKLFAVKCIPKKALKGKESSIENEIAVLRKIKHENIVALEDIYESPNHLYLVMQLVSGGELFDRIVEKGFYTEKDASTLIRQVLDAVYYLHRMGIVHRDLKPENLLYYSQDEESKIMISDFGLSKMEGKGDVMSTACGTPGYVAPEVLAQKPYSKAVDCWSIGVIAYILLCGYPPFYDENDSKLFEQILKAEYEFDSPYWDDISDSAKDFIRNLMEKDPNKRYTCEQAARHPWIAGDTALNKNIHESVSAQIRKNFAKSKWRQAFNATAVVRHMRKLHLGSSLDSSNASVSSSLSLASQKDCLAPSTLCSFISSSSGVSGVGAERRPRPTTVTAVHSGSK
Chain of Cyclin-dependent kinase 6 (Homo sapiens) (Q00534 whole entry): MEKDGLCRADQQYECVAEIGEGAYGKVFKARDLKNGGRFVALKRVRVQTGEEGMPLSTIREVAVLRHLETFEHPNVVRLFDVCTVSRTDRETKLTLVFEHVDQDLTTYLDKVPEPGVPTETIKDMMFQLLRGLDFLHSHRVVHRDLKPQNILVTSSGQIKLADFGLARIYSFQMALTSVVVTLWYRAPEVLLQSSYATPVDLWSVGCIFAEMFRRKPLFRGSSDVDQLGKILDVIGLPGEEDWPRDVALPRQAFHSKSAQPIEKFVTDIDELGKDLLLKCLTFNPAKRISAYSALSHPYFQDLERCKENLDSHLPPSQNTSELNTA
Chain of STE20-like serine/threonine-protein kinase (Homo sapiens) (Q9H2G2 whole entry, looked up): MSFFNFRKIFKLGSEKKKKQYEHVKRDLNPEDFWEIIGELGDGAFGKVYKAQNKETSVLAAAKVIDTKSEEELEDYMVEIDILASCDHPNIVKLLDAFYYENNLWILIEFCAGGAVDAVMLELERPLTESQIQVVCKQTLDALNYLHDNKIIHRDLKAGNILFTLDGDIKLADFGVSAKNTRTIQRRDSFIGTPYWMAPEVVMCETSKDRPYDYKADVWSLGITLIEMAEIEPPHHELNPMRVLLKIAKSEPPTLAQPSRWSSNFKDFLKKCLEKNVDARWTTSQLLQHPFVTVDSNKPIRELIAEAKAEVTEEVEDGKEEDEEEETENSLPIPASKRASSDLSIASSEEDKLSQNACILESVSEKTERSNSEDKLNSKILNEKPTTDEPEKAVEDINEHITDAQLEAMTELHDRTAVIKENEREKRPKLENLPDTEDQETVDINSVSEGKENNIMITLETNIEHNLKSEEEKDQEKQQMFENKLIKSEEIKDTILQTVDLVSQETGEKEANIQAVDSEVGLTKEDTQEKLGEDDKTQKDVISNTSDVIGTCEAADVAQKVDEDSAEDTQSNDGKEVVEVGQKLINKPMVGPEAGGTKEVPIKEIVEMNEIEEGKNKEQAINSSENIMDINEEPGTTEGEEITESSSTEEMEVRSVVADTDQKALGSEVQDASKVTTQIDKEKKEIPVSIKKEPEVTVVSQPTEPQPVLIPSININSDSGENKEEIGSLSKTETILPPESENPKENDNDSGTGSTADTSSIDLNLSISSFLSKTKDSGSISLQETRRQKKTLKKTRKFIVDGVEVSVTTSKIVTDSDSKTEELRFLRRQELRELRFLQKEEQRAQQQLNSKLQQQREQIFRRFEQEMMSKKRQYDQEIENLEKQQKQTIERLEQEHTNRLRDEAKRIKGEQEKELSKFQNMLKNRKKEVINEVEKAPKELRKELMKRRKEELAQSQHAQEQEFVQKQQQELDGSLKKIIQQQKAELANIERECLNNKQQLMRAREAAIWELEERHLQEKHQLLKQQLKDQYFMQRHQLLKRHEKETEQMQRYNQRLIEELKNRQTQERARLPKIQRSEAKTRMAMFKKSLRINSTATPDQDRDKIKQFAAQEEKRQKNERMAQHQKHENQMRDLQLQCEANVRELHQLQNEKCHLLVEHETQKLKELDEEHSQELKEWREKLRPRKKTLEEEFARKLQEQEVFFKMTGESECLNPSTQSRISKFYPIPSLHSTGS
Chain of Serine/threonine-protein kinase 16 (Homo sapiens) (O75716 whole entry): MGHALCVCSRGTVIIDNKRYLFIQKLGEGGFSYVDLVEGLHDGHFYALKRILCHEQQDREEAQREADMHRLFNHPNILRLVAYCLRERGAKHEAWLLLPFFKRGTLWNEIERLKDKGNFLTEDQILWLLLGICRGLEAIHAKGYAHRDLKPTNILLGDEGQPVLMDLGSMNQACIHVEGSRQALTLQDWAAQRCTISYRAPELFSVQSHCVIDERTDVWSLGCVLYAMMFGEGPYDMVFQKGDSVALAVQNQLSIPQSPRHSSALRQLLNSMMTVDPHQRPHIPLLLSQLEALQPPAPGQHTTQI

On to `C/C(O)=C(\C#N)C(=O)Nc1cc(Br)ccc1Br`, for which the ΔTm was 0.3 °C in [1]; -0.1 °C in test [2]; 0.2 °C in test [3]; 0.5 °C in test [4]; 0.7 °C in test [5]; -0.2 °C in [6]. Further, the ΔTm was 0.3 °C in [7]; 0.9 °C in test [8]; -0.2 °C in [9]; 1.1 °C in test [10]; -3.7 °C in [11]; 1.4 °C in test [12]. Further, the ΔTm is 1.5 °C in test [13]; 0.6 °C in test [14]; 0.4 °C in test [15]; 0.4 °C in test [16]; -0.1 °C in test [17]; 0.2 °C in test [18]. In addition, the ΔTm in [19] is 0.8 °C; in [20] it was 0.1 °C; in test [21], -0.1 °C.

On to `CCOC(=O)c1cnc2oc3ccc(O)cc3c2c1-c1ccccc1`, for which the ΔTm in test [1] was found to be 0.4 °C; in test [2] it was 0.1 °C; in test [3] it was 0.1 °C; in test [4], 6.2 °C; in [5], 0.8 °C; in test [6] it was 0.5 °C. Further, the ΔTm in test [7] was -0.1 °C; in test [8], 0.9 °C; in test [9], -0.5 °C; in test [10] it was 1.3 °C; in test [11] it was -0.5 °C; in [12] it was 1.3 °C. Moreover, the ΔTm in [13] was found to be 1.2 °C; in [14], 4.4 °C; in test [15], 2.3 °C; in [16] it was 5.4 °C; in test [17] it was 0.2 °C; in test [18] it was 3.4 °C. Also, the results for the ΔTm in [19], in test [20] and in [21] were -0.2 °C, 0.3 °C and 0 °C, respectively.

As to `C=CNC#N`, the ΔTm in test [1] is 0.7 °C; in test [2], 0.4 °C; in [3] it was 0.1 °C; in test [4] it was 0.8 °C; in [5] it was -0.2 °C; in [6] it was 1.8 °C. Moreover, the ΔTm in [7] was -0.6 °C; in [8], 2.1 °C; in test [9], -0.2 °C; in test [10], 0 °C; in test [11], -0.1 °C; in [12] it was 1.6 °C. For the same molecule, the thermal shift (ΔTm) in test [13] was determined as 0 °C; in test [14], 0 °C; in test [15] it was 0.1 °C; in test [16] it was 0 °C; in test [17] it was 0.7 °C; in test [18], 1.9 °C. Besides, the thermal shift (ΔTm) in test [19] is -1.1 °C; in test [20], 0.2 °C; in [21], 0.4 °C.

`CN(C)c1ncnc2nc[nH]c12` [DIMETHYLADENINE]: the ΔTm in test [1] is 0 °C; in test [2], -0.1 °C; in test [3] it was 0.1 °C; in [4], 1.3 °C; in test [5], 0.9 °C; in test [6], -0.2 °C. Further, the shift in melting temperature (ΔTm) in [7] came out at 0.4 °C; in test [8], 0.8 °C; in [9], 0 °C; in [10] it was 1.1 °C; in [11], 0.1 °C; in [12], 0.7 °C. For the same molecule, the ΔTm came to 0.1 °C in [13]; 0.6 °C in test [14]; 0.8 °C in test [15]; 0.5 °C in test [16]; 0.3 °C in test [17]; 1.1 °C in [18]. Moreover, the ΔTm in test [19] stood at 0.5 °C; in test [20], 0 °C; in test [21], 0.9 °C.

For `CN(C)S(=O)(=O)c1ccc2c(c1)/C(=C/c1cc3c([nH]1)CCCC3)C(=O)N2`, the ΔTm was 1.4 °C in test [1]; 0.2 °C in test [2]; -0.9 °C in test [3]; 4.3 °C in [4]; 0.3 °C in [5]; 7 °C in test [6]. Further, the shift in melting temperature (ΔTm) in test [7] came out at 0.8 °C; in test [8], 2.8 °C; in test [9], 0.8 °C; in test [10], 2.2 °C; in test [11], 0.4 °C; in [12] it was 2.5 °C. The thermal shift (ΔTm) was -6.4 °C in test [13]; 7.5 °C in test [14]; 6.2 °C in [15]; 0.3 °C in [16]; 2.2 °C in test [17]; 8.7 °C in [18]. The shift in melting temperature (ΔTm) in [19] turned out to be 1 °C; in test [20], 0.4 °C; in test [21], 5.3 °C.

In the case of `O=c1c(O)c(-c2ccc(O)c(O)c2)oc2cc(O)cc(O)c12` [QUERCETIN], the ΔTm in test [1] came to 2.9 °C; in [2] it was 2.7 °C; in [3] it was 1.9 °C; in test [4], 7.7 °C; in test [5], 7.5 °C; in test [6], 2.4 °C. Moreover, the ΔTm in test [7] turned out to be 1.9 °C; in test [8], 3.4 °C; in test [9] it was 1.6 °C; in test [10], 7.4 °C; in test [11], 1.1 °C; in [12], 4.2 °C. In addition, the thermal shift (ΔTm) in test [13] amounted to 4.2 °C; in [14], 5.6 °C; in test [15] it was 5.7 °C; in test [16], 4.8 °C; in [17] it was 3.2 °C; in test [18], 5.4 °C. Besides, the thermal shift (ΔTm) is 0.4 °C in test [19], 2.7 °C in test [20] and 5.3 °C in test [21].

The ΔTm is the shift of the melting midpoint relative to a reference.
